Test results taken from patent US11116760B2 (Gilead Sciences, Inc., priority 2018, dated 2021).
pEC50: −log10 of the molar value.

Biological target: α4β7 integrin (Homo sapiens (Human), UniProt P13612+P26010)
Test: α4β7 Integrin Cell Capture Assay
Assay type: cell-based
[1] = Table 1, capture of α4β7 expressing RPM18866 cells on MadCAM-1 extracellular domain-coated plate
[2] = Table 2, capture of α4β7 expressing RPM18866 cells on MadCAM-1 extracellular domain-coated plate
[3] = RPMI8866 cells captured on MadCAM-1 extracellular domain-coated plate

Sequence of α4β7 integrin (P13612 34-1032): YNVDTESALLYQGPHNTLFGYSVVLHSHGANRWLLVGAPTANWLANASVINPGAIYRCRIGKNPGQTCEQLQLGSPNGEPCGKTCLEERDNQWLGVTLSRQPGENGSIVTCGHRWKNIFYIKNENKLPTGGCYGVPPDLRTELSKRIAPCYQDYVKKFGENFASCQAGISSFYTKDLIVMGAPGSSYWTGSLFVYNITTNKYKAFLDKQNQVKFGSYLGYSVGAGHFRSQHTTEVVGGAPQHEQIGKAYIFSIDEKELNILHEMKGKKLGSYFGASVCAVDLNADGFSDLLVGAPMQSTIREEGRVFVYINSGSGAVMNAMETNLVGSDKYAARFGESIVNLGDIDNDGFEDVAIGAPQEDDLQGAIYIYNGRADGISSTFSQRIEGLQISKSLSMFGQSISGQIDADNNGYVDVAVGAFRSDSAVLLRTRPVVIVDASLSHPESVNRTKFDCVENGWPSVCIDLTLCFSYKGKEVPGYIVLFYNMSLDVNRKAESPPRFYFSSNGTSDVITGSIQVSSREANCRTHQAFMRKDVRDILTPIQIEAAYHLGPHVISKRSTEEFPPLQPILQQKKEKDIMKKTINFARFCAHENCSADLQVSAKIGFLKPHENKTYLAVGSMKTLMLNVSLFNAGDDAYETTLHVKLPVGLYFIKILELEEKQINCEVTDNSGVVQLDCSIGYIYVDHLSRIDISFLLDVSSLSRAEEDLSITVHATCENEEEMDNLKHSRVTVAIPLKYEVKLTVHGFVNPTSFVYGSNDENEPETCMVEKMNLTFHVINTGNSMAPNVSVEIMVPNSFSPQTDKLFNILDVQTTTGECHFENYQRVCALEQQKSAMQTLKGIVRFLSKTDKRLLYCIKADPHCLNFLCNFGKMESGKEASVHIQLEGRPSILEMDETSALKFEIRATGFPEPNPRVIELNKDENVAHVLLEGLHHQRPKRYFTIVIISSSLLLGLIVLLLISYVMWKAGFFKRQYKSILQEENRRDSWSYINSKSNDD
Sequence of α4β7 integrin (P26010 20-798): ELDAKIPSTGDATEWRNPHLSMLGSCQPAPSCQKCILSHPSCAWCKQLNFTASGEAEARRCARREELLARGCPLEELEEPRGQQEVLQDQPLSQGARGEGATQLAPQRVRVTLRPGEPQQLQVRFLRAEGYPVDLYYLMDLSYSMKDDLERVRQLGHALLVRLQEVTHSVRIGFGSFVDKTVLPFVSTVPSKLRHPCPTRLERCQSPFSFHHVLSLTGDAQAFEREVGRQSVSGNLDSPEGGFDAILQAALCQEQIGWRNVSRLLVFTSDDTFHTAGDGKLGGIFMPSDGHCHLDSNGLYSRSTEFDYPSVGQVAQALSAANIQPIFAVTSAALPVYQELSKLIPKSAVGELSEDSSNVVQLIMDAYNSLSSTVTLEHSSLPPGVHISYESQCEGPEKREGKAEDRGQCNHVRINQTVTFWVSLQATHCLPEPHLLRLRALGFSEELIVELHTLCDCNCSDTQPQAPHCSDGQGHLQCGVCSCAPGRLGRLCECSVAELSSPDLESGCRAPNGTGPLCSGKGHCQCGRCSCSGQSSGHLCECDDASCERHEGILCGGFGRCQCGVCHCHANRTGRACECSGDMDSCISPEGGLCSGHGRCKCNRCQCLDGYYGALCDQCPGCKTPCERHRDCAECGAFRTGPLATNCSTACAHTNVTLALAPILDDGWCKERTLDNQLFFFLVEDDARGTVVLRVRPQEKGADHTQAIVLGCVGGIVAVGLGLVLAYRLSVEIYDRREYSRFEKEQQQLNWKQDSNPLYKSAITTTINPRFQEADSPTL

SMILES	pEC50 [1]	pEC50 [2]	also measured
CC[C@@H](Nc1cc(F)c(C(=O)N[C@@H](Cc2ccc(-c3c(OC)cc(CN4CCOCC4)cc3OC)c3ncccc23)C(=O)O)c(F)c1)C(F)(F)F [Example 121, (S)-2-(2,6-difluoro-4-(((R)-1,1,1-trifluorobutan-2-yl)amino)benzamido)-3-(8-(2,6-dimethoxy-4-(morpholinomethyl)phenyl)quinolin-5-yl)propanoic acid]	8.77	–	–
Cc1cc(N2CCOC[C@@H]2C(F)(F)F)cc(F)c1C(=O)N[C@@H](Cc1ccc(-n2c(=O)c3ccncc3n(C)c2=O)c2ncccc12)C(=O)O (atropisomer, axis not shown) [Example 408, (S)-2-(2-fluoro-6-methyl-4-((R)-3-(trifluoromethyl)morpholino)benzamido)-3-(8-(1-methyl-2,4-dioxo-1,4-dihydropyrido[3,4-d]pyrimidin-3(2H)-yl)quinolin-5-yl)propanoic acid]	–	–	pEC50 [3]: 10.31
Cn1c(=O)c(-c2ccc(C[C@H](NC(=O)c3c(F)cc(NS(=O)(=O)C(F)F)cc3F)C(=O)O)c3cccnc23)cc2ccccc21 [Example 153]	–	9.70	–
CC[C@@H](Nc1cc(F)c(C(=O)N[C@@H](Cc2ccc(-c3c(C)c(F)cn(C)c3=O)c3ncccc23)C(=O)O)c(F)c1)C(F)(F)F [Example 199]	–	8.82	–
CCC(CC)Nc1cc(F)c(C(=O)N[C@@H](Cc2ccc(-c3c(C(F)(F)F)cc(C)n(C)c3=O)c3ncccc23)C(=O)O)c(F)c1 [Example 272]	–	8.35	–
C[C@@H](NC(=O)c1cc(F)c(C(=O)N[C@@H](Cc2ccc(-c3ccc(C#N)cc3Cl)c3ncccc23)C(=O)O)c(F)c1)c1ccccc1 [Example 27, (S)-3-(8-(2-chloro-4-cyanophenyl)quinolin-5-yl)-2-(2,6-difluoro-4-(((R)-1-phenylethyl)carbamoyl)benzamido)propanoic acid]	7.89	–	–
Cn1c(=O)n(-c2ccc(C[C@H](NC(=O)c3c(F)cc(N4CCOC[C@@H]4C(F)(F)F)cc3F)C(=O)O)c3cccnc23)c(=O)c2cnccc21 [Example 473]	–	–	pEC50 [3]: 9.71
N#Cc1ccc(-c2c(F)cc(C[C@H](NC(=O)c3c(F)cccc3F)C(=O)O)c3cccnc23)c(Cl)c1 [Example 34, (2S)-3-(8-(2-chloro-4-cyanophenyl)-7-fluoroquinolin-5-yl)-2-(2,6-difluorobenzamido)propanoic acid]	7.40	–	–
Cc1c(Cl)cn(C)c(=O)c1-c1ccc(C[C@H](NC(=O)c2c(F)cc(N3CCOC[C@@H]3C(F)(F)F)cc2F)C(=O)O)c2cccnc12 [Example 165]	–	9.40	–
Cc1cnc(-c2c(F)cc(C[C@H](NC(=O)c3c(C)cc(N4CCOC[C@@H]4C(F)(F)F)cc3F)C(=O)O)c3cccnc23)nc1C [Example 465]	–	–	pEC50 [3]: 8.82
Cc1nc(-c2ccc(C[C@H](NC(=O)c3c(F)cc(N4CCOC[C@H]4C(F)(F)F)cc3F)C(=O)O)c3cccnc23)c(=O)n(C)c1C [Example 255]	–	8.47	–
CC[C@@H](Nc1cc(F)c(C(=O)N[C@@H](Cc2ccc(-c3c(C(F)(F)F)c4ccccc4n(C)c3=O)c3ncccc23)C(=O)O)c(F)c1)C(F)(F)F [Example 123, (S)-2-(2,6-difluoro-4-(((R)-1,1,1-trifluorobutan-2-yl)amino)benzamido)-3-(1-methyl-2-oxo-4-(trifluoromethyl)-1,2-dihydro-[3,8′-biquinolin]-5′-yl)propanoic acid]	9.05	–	–
CCc1cc(N2CCOC[C@@H]2C(F)(F)F)cc(F)c1C(=O)N[C@@H](Cc1ccc(-c2c(C(F)(F)F)cc(C)n(C)c2=O)c2ncccc12)C(=O)O [Example 471]	–	–	pEC50 [3]: 9.75
N#Cc1ccc(-c2ccc(C[C@H](NC(=O)c3c(F)cc(NC(c4ccccc4)C(F)F)cc3F)C(=O)O)c3cccnc23)c(Cl)c1 (stereo partly shown) [Example 326]	–	7.72	–
N#Cc1ccc(-c2ccc(C[C@H](NC(=O)c3c(F)cc(NC(=O)c4ccccc4C(F)(F)F)cc3F)C(=O)O)c3cccnc23)c(Cl)c1 [Example 337]	–	7.58	–
Cc1cc(C(F)(F)F)c(-c2ccc(C[C@H](NC(=O)c3c(F)cc(N4CCC[C@@H]4C(F)(F)F)cc3F)C(=O)O)c3cccnc23)c(=O)n1C [Example 132, (S)-2-(2,6-difluoro-4-((R)-2-(trifluoromethyl)pyrrolidin-1-yl)benzamido)-3-(8-(1,6-dimethyl-2-oxo-4-(trifluoromethyl)-1,2-dihydropyridin-3-yl)quinolin-5-yl)propanoic acid]	8.89	–	–
Cc1cc(C(F)(F)F)c(-c2ccc(C[C@H](NC(=O)c3c(F)cc(N4CCOC[C@@H]4CC(F)(F)F)cc3F)C(=O)O)c3cccnc23)c(=O)n1C [Example 131, (S)-2-(2,6-difluoro-4-((S)-3-(2,2,2-trifluoroethyl)morpholino)benzamido)-3-(8-(1,6-dimethyl-2-oxo-4-(trifluoromethyl)-1,2-dihydropyridin-3-yl)quinolin-5-yl)propanoic acid]	9.10	–	–
CC[C@@H](Nc1cc(F)c(C(=O)N[C@@H](Cc2ccc(-c3c(C)c(C(F)(F)F)cn(C)c3=O)c3ncccc23)C(=O)O)c(F)c1)C(F)(F)F [Example 188]	–	8.92	–
CC[C@@H](Nc1cc(F)c(C(=O)N[C@@H](Cc2ccc(-c3c(C)cc(C)n(C)c3=O)c3ncccc23)C(=O)O)c(F)c1)C(F)(F)F [Example 345]	–	9.10	–
N#Cc1ccc(-c2ccc(C[C@H](NC(=O)c3c(F)cccc3Cl)C(=O)O)c3cccnc23)c(Cl)c1 [Example 2, (S)-3-(8-(2-chloro-4-cyanophenyl)quinolin-5-yl)-2-(2-chloro-6-fluorobenzamido)propanoic acid]	7.51	–	–
CC[C@@H](Nc1cc(F)c(C(=O)N[C@@H](Cc2ccc(-c3c(C(F)(F)F)cc(C)n(C)c3=O)c3ncc(N(C)C)cc23)C(=O)O)c(F)c1)C(F)(F)F [Example 139, (S)-2-(2,6-difluoro-4-(((R)-1,1,1-trifluorobutan-2-yl)amino)benzamido)-3-(8-(1,6-dimethyl-2-oxo-4-(trifluoromethyl)-1,2-dihydropyridin-3-yl)-3-(dimethylamino)quinolin-5-yl)propanoic acid]	7.93	–	–
CC[C@@H](Nc1cc(F)c(C(=O)N[C@@H](Cc2ccc(-c3c(C)n(C)c4ccc(F)cc4c3=O)c3ncccc23)C(=O)O)c(F)c1)C(F)(F)F [Example 127, (S)-2-(2,6-difluoro-4-(((R)-1,1,1-trifluorobutan-2-yl)amino)benzamido)-3-(6-fluoro-1,2-dimethyl-4-oxo-1,4-dihydro-[3,8′-biquinolin]-5′-yl)propanoic acid]	8.03	–	–
Cc1cc(C(F)(F)F)c(-c2ccc(C[C@H](NC(=O)c3c(F)cc(N4CCc5ccccc5[C@@H]4C(F)(F)F)cc3F)C(=O)O)c3cccnc23)c(=O)n1C [Example 472]	–	–	pEC50 [3]: 9.48
Cc1cnc(-c2ccc(C[C@H](NC(=O)c3c(F)cc(N4CCOC[C@@H]4C(F)(F)F)cc3F)C(=O)O)c3cccnc23)c(N(C)C)c1 [Example 277]	–	8.28	–
CN1CCc2c(cc(-c3ccc(C[C@H](NC(=O)c4c(F)cc(N5CCOC[C@@H]5C(F)(F)F)cc4F)C(=O)O)c4cccnc34)c(=O)n2C)C1 [Example 437]	–	–	pEC50 [3]: 9.58
O=C(N[C@@H](Cc1ccc(Oc2nccc3ccccc23)c2ncccc12)C(=O)O)c1c(Cl)cccc1Cl [Example 157]	–	7.36	–
CC[C@@H](Nc1cc(C)c(C(=O)N[C@@H](Cc2ccc(-n3c(=O)c4ccncc4n(C)c3=O)c3ncccc23)C(=O)O)c(F)c1)C(F)(F)F [Example 439]	–	–	pEC50 [3]: 10.31
CCOCc1cc(OC)c(-c2ccc(C[C@H](NC(=O)c3c(F)cccc3F)C(=O)O)c3ccc(C)nc23)c(OC)c1 [Example 31, (S)-2-(2,6-difluorobenzamido)-3-(8-(4-(ethoxymethyl)-2,6-dimethoxyphenyl)-2-methylquinolin-5-yl)propanoic acid]	7.71	–	–
CC[C@@H](Nc1cc(F)c(C(=O)N[C@@H](Cc2ccc(-c3ccc(C#N)cc3Cl)c3ncccc23)C(=O)O)c(F)c1)C(F)(F)F [Example 74, (S)-3-(8-(2-chloro-4-cyanophenyl)quinolin-5-yl)-2-(2,6-difluoro-4-(((R)-1,1,1-trifluorobutan-2-yl)amino)benzamido)propanoic acid]	7.87	–	–

Continued, in another order:

pEC50 [1]	pEC50 [2]	SMILES	also measured
9.70	–	Cc1cc(C(F)(F)F)c(-c2ccc(C[C@H](NC(=O)c3c(F)cc(N4CCOC[C@@H]4C(F)(F)F)cc3F)C(=O)O)c3cccnc23)c(=O)n1C [Example 96, (S)-2-(2,6-difluoro-4-((R)-3-(trifluoromethyl)morpholino)benzamido)-3-(8-(1,6-dimethyl-2-oxo-4-(trifluoromethyl)-1,2-dihydropyridin-3-yl)quinolin-5-yl)propanoic acid]	–
–	7.82	O=C(N[C@@H](Cc1ccc(-c2nccc(C(F)(F)F)n2)c2ncccc12)C(=O)O)c1c(F)cc(N2CCOC[C@@H]2C(F)(F)F)cc1F [Example 189]	–
–	8.46	Cc1cc(C(F)(F)F)c(-c2ccc(C[C@H](NC(=O)c3c(F)cc(N4CC5CCC4CO5)cc3F)C(=O)O)c3cccnc23)c(=O)n1C (stereo partly shown) [Example 257]	–
–	8.85	Cn1c(=O)c(-c2ccc(C[C@H](NC(=O)c3c(F)cc(N4CCOC[C@H]4C(F)(F)F)cc3F)C(=O)O)c3cccnc23)cc2cnccc21 [Example 192]	–
7.69	–	CC[C@@H](Nc1cc(F)c(C(=O)N[C@@H](Cc2ccc(-c3nn(C)c(=O)cc3C)c3ncccc23)C(=O)O)c(F)c1)C(F)(F)F [Example 119, (S)-2-(2,6-difluoro-4-(((R)-1,1,1-trifluorobutan-2-yl)amino)benzamido)-3-(8-(1,4-dimethyl-6-oxo-1,6-dihydropyridazin-3-yl)quinolin-5-yl)propanoic acid]	–
–	7.84	Cc1nc(-c2ccc(C[C@H](NC(=O)c3c(F)cccc3F)C(=O)O)c3cccnc23)c(C(F)(F)F)c2ccccc12 [Example 318]	–
–	8.24	CC[C@@H](Nc1cc(F)c(C(=O)N[C@@H](Cc2ccc(-c3c(C)c(N(C)C)cn(C)c3=O)c3ncccc23)C(=O)O)c(F)c1)C(F)(F)F [Example 287]	–
8.89	–	CC[C@@H](Nc1cc(F)c(C(=O)N[C@@H](Cc2ccc(-c3nc(C)ccc3OC)c3ncccc23)C(=O)O)c(F)c1)C(F)(F)F [Example 120, (S)-2-(2,6-difluoro-4-(((R)-1,1,1-trifluorobutan-2-yl)amino)benzamido)-3-(8-(3-methoxy-6-methylpyridin-2-yl)quinolin-5-yl)propanoic acid]	–
